2 substances from patent US8455448B2, “Myostatin isoform” (Myostin Therapeutics Pty Ltd, priority 2004, dated 2013) can be followed below.

The test system of assay [1] is human skeletal muscle myoblasts. Nature of the assay: Proliferation assay of human primary myoblasts (methylene blue). Type of assay: cell-based. The procedure:
(§1) Human skeletal muscle myoblasts (Cambrex, Australia) were seeded in 96-well tissue culture plates (Nunc, Roskilde, Denmark) at a cell density of 2000 cells per well in 200 μl of Skeletal Muscle Basal Medium (Cambrex, Australia) supplemented with foetal bovine serum (FBS, 10% v/v, Cambrex, Australia), and incubated overnight at 37° C. with 5% CO2. The medium was replaced with Dulbecco's modified Eagle's medium (DMEM, Invitrogen, California) supplemented with 5% foetal bovine serum (FBS, Invitrogen, California), penicillin (1×10^5 IU/l, Sigma, St Louis, Mo., USA) and streptomycin (100 mg/l, Sigma) buffered with NaHCO3 containing phenol red (7.22 nmol/l) as a pH indicator with 0, 0.1, 1, 5 and 10 μg/ml rhMSV38 or roMSV47 protein in a semi-random arrangement of eight replicates (n=8) for each test medium. Plates were incubated at 37° C. with 5% CO2 for 96 hours, and then the medium was removed. The wells were washed with 200 μl of phosphate buffered saline (PBS, Oxoid, UK) buffer and fixed with 100 μl of 10% formaldehyde, 0.9% NaCl solution for at least one hour. The fixative was then removed and 100 μl of 1% methylene blue stain in 0.01 M borate buffer (pH 8.5) was added to each well and incubated for 30 min at room temperature. Excess stain was removed by four sequential washes in borate buffer. Methylene blue was eluted from the cells by the addition of 100 μl 1:1 (v/v) ethanol/0.1 HCl. The plates were gently shaken and the absorbance was measured at 655 nm using a microplate photometer (VersaMax, Molecular Devices, CA).
Human skeletal muscle myoblasts (Cambrex, Australia) were seeded in 96-well tissue culture plates (Nunc, Roskilde, Denmark) at a cell density of 2000 cells per well in 200 μl of Skeletal Muscle Basal Medium (Cambrex, Australia) supplemented with foetal bovine serum (FBS, 10% v/v, Cambrex, Australia), and incubated overnight at 37° C. with 5% CO2. The medium was replaced with Dulbecco's modified Eagle's medium (DMEM, Invitrogen, California) supplemented with 5% foetal bovine serum (FBS, Invitrogen, California), penicillin (1×10^5 IU/l, Sigma, St Louis, Mo., USA) and streptomycin (100 mg/l, Sigma) buffered with NaHCO3 containing phenol red (7.22 nmol/l) as a pH indicator with no added protein, 1.5 or 3.0 μg/ml recombinant bovine mature myostatin alone and with combination of 0.3, 1, 3, 10 molar ratio of rhMSV38 to myostatin, and the same amounts of rhMSV38 without myostatin in a semi-random arrangement of eight replicates (n=8) for each test medium. Plates were incubated at 37° C. with 5% CO2 for 48 hours, and then the medium was removed. […] The plates were gently shaken and the absorbance was measured at 655 nm using a microplate photometer (VersaMax, Molecular Devices, CA).

In the next assay the test system is murine C2C12 myoblasts. Nature of the assay: Proliferation assay of C2C12 murine myoblasts (methylene blue, absorbance 655 nm). The assay is classed as cell-based. As for the experimental part: (§2) Myoblasts were seeded in 96-well tissue culture plates (Nunc, Roskilde, Denmark) at a cell density of 1000 cells per well in 200 μl of Dulbecco's modified Eagle's medium (DMEM, Invitrogen, California) supplemented with foetal bovine serum (FBS, 10% v/v, Invitrogen), penicillin (1×10^5 IU/l, Sigma, St Louis, Mo., USA) and streptomycin (100 mg/l, Sigma) buffered with NaHCO3 containing phenol red (7.22 nmol/l) as a pH indicator, and incubated overnight at 37° C. with 5% CO2. Medium was replaced with DMEM 10% FBS test medium containing 0, 0.001, 0.003, 0.01, 0.03, 0.1, 0.3, 1, 3 or 10 μg/ml oMSV65 in a semi-random arrangement of eight replicates (n=8) for each test medium. Plates were incubated at 37° C. with 5% CO2 for 72 hours, and then the medium was removed. The wells were washed with 200 μl of phosphate buffered saline (PBS, Oxoid, UK) and fixed with 100 μl of 10% formaldehyde, 0.9% NaCl solution for at least one hour. The fixative was then removed and 100 μl of 1% methylene blue stain in 0.01 M borate buffer (pH 8.5) was added to each well and incubated for 30 min at room temperature. Excess stain was removed by four sequential washes in borate buffer. Methylene blue was eluted from the cells by the addition of 100 μl 1:1 (v/v) ethanol/0.1 HCl. The plates were gently shaken and the absorbance was measured at 655 nm using a microplate photometer (FIGS. 3a and 3b).
as §2, with “0,” for “0, 0.001, 0.003,”, “0.01,” for “0.01, 0.03,”, “1” for “0.3, 1, 3”, “oMSV47” for “oMSV65”, “60” for “72”, “(FIG. 9).” for “(FIGS. 3a and 3b).”
Myoblasts were seeded in 96-well tissue culture plates (Nunc, Roskilde, Denmark) at a cell density of 1000 cells per well in […] of Dulbecco's modified Eagle's medium (DMEM, Invitrogen, California) supplemented with foetal bovine serum (FBS, 10% v/v, Invitrogen), penicillin (1×10^5 IU/l, Sigma, St Louis, Mo., USA) and streptomycin (100 mg/l, Sigma) buffered with NaHCO3 containing phenol red (7.22 nmol/l) as a pH indicator, and incubated overnight at 37° C. with 5% CO2. Medium was replaced with DMEM 2.5% FBS test medium containing 0, 0.01, 0.1, 1, 5 or 10 μg/ml of the respective peptides in a semi-random arrangement of eight replicates (n=8) for each test medium. Plates were incubated at 37° C. with 5% CO2 for 80 hours, and then the medium was removed. The wells were washed with 200 μl of phosphate buffered saline (PBS, Oxoid, UK) and fixed with 100 μl of 10% formaldehyde, 0.9% NaCl solution for at least one hour. The fixative was then removed and 100 μl of 1% methylene blue stain in 0.01 M borate buffer (pH 8.5) was added to each well and incubated for 30 min at room temperature. Excess stain was removed by four sequential washes in borate buffer. Methylene blue was eluted from the cells by the addition of 100 μl 1:1 (v/v) ethanol/0.1 HCl. […]

The target in another assay is T1, myostatin (Bos taurus, UniProt O18836).
T1 sequence (O18836 267-375): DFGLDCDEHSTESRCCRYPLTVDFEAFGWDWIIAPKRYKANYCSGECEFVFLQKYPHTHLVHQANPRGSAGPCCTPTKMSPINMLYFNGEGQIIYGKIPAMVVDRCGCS
Nature of the assay: rhMSV38/mature myostatin competition in human primary myoblast proliferation assay. The assay is classed as cell-based, bovine. The conditions noted are these: FIG. 13. The procedure:
as §1, with “with no added protein, 1.5 or 3.0 μg/ml recombinant bovine mature myostatin alone and with combination of 0.3,” for “with 0, 0.1,”, “1, 3, 10 molar ratio of rhMSV38 to myostatin,” for “1, 5”, “and the same amounts of” for “and 10 μg/ml”, “rhMSV38 without myostatin” for “rhMSV38 or roMSV47 protein”, “for 48” for “for 96”

Where no end group is shown, it is not given here.

As to “myostatin: recombinant bovine mature myostatin, negative regulator of muscle growth [reference compound]”, the “proliferation of human myoblasts under myostatin” value in assay [1] (1.5 or 3 μg/ml Mstn, 48 h, FIG. 13) is on record as “inhibitory effect”. The “myoblast proliferation under myostatin” value in the assay with murine C2C12 myoblasts (1.5 μg/ml myostatin, C2C12, FIG. 9) is recorded as “inhibited myoblast proliferation”.
As to “rhMSV38: recombinant human MSV38 expressed in E. coli (VHFPTPPNEEWIFFNVRRIIFLEVGFQFCSILGETALS; not fully specified)”, the “proliferation of human myoblasts” value in assay [1] (0-10 μg/ml, 96 h, FIG. 12B) is recorded as “stimulate myoblast proliferation”. Also, the “proliferation of human primary myoblasts” value in assay [1] (rhMSV38 without myostatin, 48 h, FIG. 13) is “stimulate proliferation of human primary myoblasts in a dose dependent manner”. For the same substance, the “proliferation of murine C2C12 myoblasts” value with murine C2C12 myoblasts (0-10 μg/ml, DMEM 2.5% FBS, 80 h, FIG. 12A and FIG. 17) is on record as “stimulate myoblast proliferation”. In addition, the “overcoming the inhibitory effect of myostatin on proliferation of human myoblasts” value with myostatin (1.5 μg/ml Mstn, 48 h) is “able to overcome the inhibitory effect of myostatin”. For the same substance, the “antagonism of myostatin, proliferation relative to controls” value with myostatin (1:10 molar ratio of myostatin to rhMSV38, 48 h) was “increases proliferation beyond that of controls”. In the assay with myostatin (double the concentration of myostatin (3 μg/ml Mstn), 48 h), the “molar ratio rhMSV38:myostatin at which restoration was achieved” value is on record as 1 × molar ratio.
